Reference: US9579376B2 (priority 2009, dated 2017)

How the values were obtained:
[1] = system: CD8+ T cells; assay: IFN-γ ELISpot deconvolution and follow-up ICS to identify single peptide epitopes; format: cell-based, human; conditions: for antigenicity for persons with HLA A*0201, A*0202 or other HLA-A2 subtypes: Example 1, T-cells from infected patients; for # SUBJECTS: number of HSV-2 seropositive subjects (55 sampled) with CD8+ T cell response to the peptide, ELISpot and follow-up ICS
Protocol: ELISPOT technology was used to further identify individual peptides.
High throughput intracellular cytokine staining-flow cytometry (ICS) was used to detect IFN-γ, IL-2, TNF-α expression in CD8+ T cells following 6 h exposure of PBMC with HSV-2 peptides (or control antigen) in the presence of co-stimulatory antibodies (α-CD28/α-CD49d) and Brefeldin A. Cytokine responses to peptide antigen were scored positive if they differed from the negative control (p<0.02; Fisher's one-sided test); this cutoff was defined during trial and error validation studies with HSV-2 seronegative subjects and allows for a 5% false positive error rate. Peptide pools giving positive responses by ICS in HSV-2 seropositive subjects were deconvoluted using IFN-γ ELISpot to identify the causative peptide. Deconvolution cutoff was determined as at least 11 spots per well and 3-fold higher spots than DMSO (negative) control.

[2] = system: HSV-2 specific CD8+ T cells; assay: CFSE proliferation of peptide exposed PBMC (cell division index); format: cell-based, human; conditions: CFSE stained PBMC; CDI>2 cut-off for proliferation positivity
Text: To evaluate the proliferative capacity of HSV-2 specific CD8+ T cells, we utilized CFSE to stain PBMC prior to epitope specific stimulation. […] CD8+ T cells that recognized UL4945-49 did proliferate (CDI=8.7), but CDI values were below threshold for peptides UL4981-96, UL4993-108 and UL49129-143 (respective CDI=1.8, 1.4 and 1.6). Since T cells specific for UL4945-49 are more abundant that those specific for the other epitopes, the ability of these cells to proliferate likely reflects the epitope dominance observed within UL49.

[3] = system: HSV-2 specific CD8+ T cells; conditions: one individual with four HLA-B07 restricted UL49 epitopes; versus other tested epitopes
Protocol: Identified single peptides were used to individually stimulate CD8+ T cells in subjects with multiple epitopes. These responses were analyzed by ICS to determine the polyfunctional profiles of HSV-2 specific T cells. Single peptides were also used to assess degranulation; the presence of lytic proteins granzyme B and perforin, in HSV-2 specific CD8+ T cells, was determined by flow cytometry. The proliferative capacities of HSV-2 specific T cells were determined by pre-staining peptide exposed PBMC with CFSE. A cell division index (CDI)>2 was used as a cut-off for proliferation positivity.
Single peptides identified during this study were used to activate epitope specific CD8+ T cells. Antigen specific CD8+ T cells were identified using a gating strategy. […] The polyfunctional profiles of responding cells, with reference to the expression of IFN-γ, IL2, and TNF-α, and the mobilization of CD107a were determined.

Row | Substance | # SUBJECTS [1] | also measured
1 | 9 mer: 9 amino acid minimal epitope at amino acids 372-380 of HSV-2 UL25 (FLWEDQTLL; herpes simplex virus 2) | – | antigenicity for persons with HLA A*0201, A*0202 or other HLA-A2 subtypes [1]: repeatedly and strongly positive
2 | AFEDRSYPAVFYLLQ (herpes simplex virus 2) | 1 | –
3 | AQREAAGVYDAVRTW (herpes simplex virus 2) | 2 | –
4 | ARPRRSASVAGSHGPG (herpes simplex virus 2) | 2 | CDI (cell division index) [2]: 1.8
5 | CPLLIFDRTRKFVLA | 1 | –
6 | DFIWTGNPRTAPRSL | 2 | –
7 | DMETGHIGAYVVLVD | 1 | –
8 | DRLDNRLQLGMLIPG (herpes simplex virus 2) | 1 | –
9 | EAGLMDAATPPARPPA | 1 | –
10 | FGGHYMESVFQMYTR (herpes simplex virus 2) | 1 | –
11 | GHIGAYVVLVDQTGN | 1 | –
12 | GVLVHLRIRTREASF (herpes simplex virus 2) | 1 | –
13 | HGPGPARAPPPPGGPV (herpes simplex virus 2) | 1 | CDI (cell division index) [2]: 1.4
14 | HNLFLWEDQTLLRAT | 5 | antigenicity for persons with HLA A*0201, A*0202 or other HLA-A2 subtypes [1]: repeatedly and strongly positive
15 | KNLLORANELVNPDA: 15-mer epitope, amino acids 249-263 of HSV-2 UL49 | 1 | –
16 | KTSNALCVRGARPFS (herpes simplex virus 2) | 1 | –
17 | LHPFCIPCMKTWIPL | 1 | –
18 | LMLEYFCRCAREESK (herpes simplex virus 2) | 1 | –
19 | LPIAGVSSVVALAPY | 1 | –
20 | PKASATPATDPARGR (herpes simplex virus 2) | 1 | CDI (cell division index) [2]: 1.6
21 | PMRARPRGEVRFLHY | 6 | response in Elispot and ICS assays ([1]; one individual with four HLA-B07 restricted epitopes within UL49, versus other UL49 epitopes): largest detectable response; CDI (cell division index) [2]: 8.7; CD107a positive cells among responding cells [3]: less CD107a positive cells relative to IFN-γ+ cells; cytokine levels in responding cells [3]: higher levels of IFN-γ; monofunctional cells among responding cells [3]: less monofunctional cells
22 | PVGNMLFDQGTLVGA | 1 | –
23 | RAAAPAWSRRTLLPE | 3 | –
24 | RLGPADRRFVALSGS (herpes simplex virus 2) | 3 | –
25 | SMSLADFHGEEFEKL (herpes simplex virus 2) | 1 | –
